Laboratory results: US9714247B2, “Multiple kinase pathway inhibitors” (Mannkind Corporation, priority 2012, dated 2017)
Where two headings read alike, the source gives them in different places.

Tests used:
[1] = system: DoHH2; test: CellTiter-Glo proliferation/viability assay; assay type: cell-based, human; details: Homo sapiens, DOHH-2
[2] = system: Ramos; test: CellTiter-Glo proliferation/viability assay; assay type: cell-based, human; details: Homo sapiens, Ramos, read-out: Ramos EC50
[3] = target: T1, Lyn (Homo sapiens (Human), UniProt P07948); details: read-out: Lyn IC50
T1 sequence (P07948 whole entry): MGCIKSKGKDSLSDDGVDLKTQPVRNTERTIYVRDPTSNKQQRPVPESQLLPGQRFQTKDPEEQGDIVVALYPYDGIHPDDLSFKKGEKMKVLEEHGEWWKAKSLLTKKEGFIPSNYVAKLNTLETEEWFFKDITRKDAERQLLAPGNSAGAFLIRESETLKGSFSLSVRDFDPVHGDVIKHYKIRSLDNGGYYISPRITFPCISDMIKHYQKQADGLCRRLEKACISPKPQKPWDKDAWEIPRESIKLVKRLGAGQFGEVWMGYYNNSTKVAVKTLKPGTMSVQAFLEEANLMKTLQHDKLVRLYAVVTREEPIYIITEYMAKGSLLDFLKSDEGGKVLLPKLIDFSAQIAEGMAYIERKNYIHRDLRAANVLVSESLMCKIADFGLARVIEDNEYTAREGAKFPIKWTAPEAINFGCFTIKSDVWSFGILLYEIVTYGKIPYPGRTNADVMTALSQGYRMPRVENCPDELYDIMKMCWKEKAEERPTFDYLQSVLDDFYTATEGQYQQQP

[4] = target: Src (Homo sapiens (Human), UniProt P12931); test: biochemical
Sequence of Src (P12931 whole entry, looked up): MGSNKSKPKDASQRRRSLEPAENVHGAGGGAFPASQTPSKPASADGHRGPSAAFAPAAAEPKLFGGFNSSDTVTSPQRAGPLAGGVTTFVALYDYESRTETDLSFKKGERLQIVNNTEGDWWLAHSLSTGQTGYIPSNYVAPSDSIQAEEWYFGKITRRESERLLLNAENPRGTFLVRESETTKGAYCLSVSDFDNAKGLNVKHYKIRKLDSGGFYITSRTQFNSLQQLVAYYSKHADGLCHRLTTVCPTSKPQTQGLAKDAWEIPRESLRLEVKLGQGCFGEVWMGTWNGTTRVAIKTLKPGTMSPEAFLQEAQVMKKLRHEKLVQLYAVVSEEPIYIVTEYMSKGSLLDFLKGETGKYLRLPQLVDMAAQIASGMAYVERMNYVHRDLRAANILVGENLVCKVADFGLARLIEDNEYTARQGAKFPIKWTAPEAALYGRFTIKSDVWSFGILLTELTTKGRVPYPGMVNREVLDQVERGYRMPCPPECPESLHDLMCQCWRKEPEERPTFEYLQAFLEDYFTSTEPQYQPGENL

[5] = target: T1, Lyn; test: biochemical
[6] = target: BTK (Homo sapiens (Human), UniProt Q06187)
Sequence of BTK (Q06187 whole entry): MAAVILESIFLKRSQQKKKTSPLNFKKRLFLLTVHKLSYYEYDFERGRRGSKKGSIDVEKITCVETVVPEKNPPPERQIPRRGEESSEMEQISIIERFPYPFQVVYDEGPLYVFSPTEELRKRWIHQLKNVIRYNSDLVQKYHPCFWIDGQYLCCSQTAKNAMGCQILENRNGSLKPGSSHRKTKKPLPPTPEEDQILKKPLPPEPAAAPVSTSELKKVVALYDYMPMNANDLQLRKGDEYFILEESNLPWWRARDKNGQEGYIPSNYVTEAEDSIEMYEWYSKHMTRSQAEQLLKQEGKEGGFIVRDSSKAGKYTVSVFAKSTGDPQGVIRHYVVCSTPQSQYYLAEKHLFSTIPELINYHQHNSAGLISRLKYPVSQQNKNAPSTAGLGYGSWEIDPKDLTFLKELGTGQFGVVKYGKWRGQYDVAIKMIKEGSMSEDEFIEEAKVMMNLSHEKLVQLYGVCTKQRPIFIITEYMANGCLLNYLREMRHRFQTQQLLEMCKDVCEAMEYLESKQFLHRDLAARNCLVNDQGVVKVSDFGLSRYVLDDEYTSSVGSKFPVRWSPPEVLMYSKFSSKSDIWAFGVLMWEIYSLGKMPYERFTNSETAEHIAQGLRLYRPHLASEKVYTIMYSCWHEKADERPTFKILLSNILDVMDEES

Row | SMILES | EC50 ([2]; 48 h) [µM] | IC50 [3] [µM] | IC50 [4] [µM] | IC50 [5] [µM] | IC50 [6] [µM] | IC50 ([6]; read-out: BTK IC50) [µM] | EC50 ([2]; 48 hrs) [µM] | IC50 ([5]; Lyn IC50) [µM] | EC50 ([1]; 48 hrs, read-out: DoHH2 EC50) [µM] | EC50 ([1]; Table 4, DoHH2 cells, read-out: EC50 (Proliferation)) [µM]
1 | CCN(CC)CCOc1ccc(Nc2cc3c(cn2)cc(C(C)C)c(=O)n3-c2ccccc2)nc1 [Compound 18, 7-[5-(2-Diethylamino-ethoxy)-pyridin-2-ylamino]-3-isopropyl-1-phenyl-1H-[1,6]naphthyridin-2-one] | > 10 | 0.1 to 1 | 0.1 to 1 | 0.1 to 1 | – | – | – | – | < 1 | < 1
2 | CCn1c(=O)c(C#CCO)cc2cnc(Nc3ccc(C)cn3)cc21 [Compound 53] | – | – | 0.1 to 1 | 1 to 5 | – | > 5 | 1 to 10 | – | 1 to 10 | –
3 | CCN(CC)CCOc1ccc(Nc2cc3c(cn2)cc(-c2ccccc2)c(=O)n3C2CCN(C)C2)nc1 (centres unmarked) [Compound 58, 7-((5-(2-(diethylamino)ethoxy)pyridin-2-yl)amino)-1-(1-methylpyrrolidin-3-yl)-3-phenyl-1,6-naphthyridin-2(1H)-one] | > 10 | – | 0.1 to 1 | – | 1 to 5 | – | – | 0.1 to 1 | 1 to 10 | –
4 | CCn1c(=O)c(-c2ccccc2)cc2cnc(Nc3ccncn3)cc21 [Compound 60, 1-Ethyl-3-phenyl-7-(pyrimidin-4-ylamino)-1H-[1,6]naphthyridin-2-one] | > 10 | – | 0.1 to 1 | 1 to 5 | 0.1 to 1 | – | – | – | 1 to 10 | –
5 | CCn1c(=O)c(-c2ccccc2)cc2cnc(Nc3ccnc(OC)n3)cc21 [Compound 62, 1-Ethyl-7-(2-methoxy-pyrimidin-4-ylamino)-3-phenyl-1H-[1,6]naphthyridin-2-one] | 1 to 10 | – | 0.1 to 1 | – | 1 to 5 | – | – | 1 to 5 | < 1 | –
6 | CCN(CC)CCOc1ccc(Nc2cc3c(cn2)cc(-c2ccccc2)c(=O)n3CC2CCN(C)C2)nc1 (centres unmarked) [Compound 65, 7-((5-(2-(diethylamino)ethoxy)pyridin-2-yl)amino)-1-((1-methylpyrrolidin-3-yl)methyl)-3-phenyl-1,6-naphthyridin-2(1H)-one] | > 10 | – | 0.1 to 1 | – | – | > 5 | – | 1 to 5 | < 1 | –
7 | CCN(CC)CCOc1ccc(Nc2cc3c(cn2)cc(-c2ccccc2)c(=O)n3-c2cccnc2)nc1 [Compound 84, 7-[5-(2-Diethylamino-ethoxy)-pyridin-2-ylamino]-3-phenyl-1-pyridin-3-yl-1H-[1,6]naphthyridin-2-one] | – | – | 0.1 to 1 | 1 to 5 | 0.1 to 1 | – | > 10 | – | 1 to 10 | –
8 | CCN(CC)CCOc1ccc(Nc2cc3c(cn2)cc(-c2ccccn2)c(=O)n3CC)nc1 [Compound 102, 7-((5-(2-(diethylamino)ethoxy)pyridin-2-yl)amino)-1-ethyl-3-(pyridin-2-yl)-1,6-naphthyridin-2(1H)-one] | > 10 | – | 0.1 to 1 | – | – | > 5 | – | 0.1 to 1 | 1 to 10 | –
9 | CCN(CC)CCOc1ccc(Nc2cc3c(cn2)cc(-c2ccc(SC)cc2)c(=O)n3CC)nc1 [Compound 104, 7-((5-(2-(diethylamino)ethoxy)pyridin-2-yl)amino)-1-ethyl-3-(4-(methylthio)phenyl)-1,6-naphthyridin-2(1H)-one] | 1 to 10 | – | 0.1 to 1 | 0.1 to 1 | – | > 5 | – | – | 1 to 10 | –
10 | CCn1c(=O)c(-c2ccccc2)cc2cnc(Nc3ccc(CN4CCNCC4)cn3)cc21 [Compound 110, 1-ethyl-3-phenyl-7-((5-(piperazin-1-ylmethyl)pyridin-2-yl)amino)-1,6-naphthyridin-2(1H)-one] | – | – | 0.1 to 1 | 0.1 to 1 | – | < 0.1 | 1 to 10 | – | < 1 | –
11 | CCn1c(=O)c(-c2ccccc2)cc2cnc(Nc3cn(C)cn3)cc21 [Compound 113, 1-ethyl-7-((1-methyl-1H-imidazol-4-yl)amino)-3-phenyl-1,6-naphthyridin-2(1H)-one] | > 10 | – | 0.1 to 1 | 0.1 to 1 | 1 to 5 | – | – | – | > 10 | –
12 | CCn1c(=O)c(-c2cc([S+](C)[O-])ccc2F)cc2cnc(Nc3ccc(N(C)C4CCN(C)CC4)cn3)cc21 (centres unmarked) [Compound 117, 1-ethyl-3-(2-fluoro-5-(methylsulfinyl)phenyl)-7-((5-(methyl(1-methylpiperidin-4-yl)amino)pyridin-2-yl)amino)-1,6-naphthyridin-2(1H)-one] | > 10 | – | 0.1 to 1 | < 0.1 | 0.1 to 1 | – | – | – | 1 to 10 | –
13 | O=c1c(-c2c(F)cccc2F)cc2cnc(Nc3ccc(F)cn3)cc2n1CCO [Compound 125, 3-(2,6-difluorophenyl)-7-((5-fluoropyridin-2-yl)amino)-1-(2-hydroxyethyl)-1,6-naphthyridin-2(1H)-one] | > 10 | – | 0.1 to 1 | 0.1 to 1 | 0.1 to 1 | – | – | – | < 1 | –
14 | NCCn1c(=O)c(-c2c(F)cccc2F)cc2cnc(Nc3ccc(F)cn3)cc21 [Compound 127, 1-(2-aminoethyl)-3-(2,6-difluorophenyl)-7-((5-fluoropyridin-2-yl)amino)-1,6-naphthyridin-2(1H)-one] | – | – | 0.1 to 1 | 0.1 to 1 | – | < 0.1 | > 10 | – | 1 to 10 | –
15 | COCCn1c(=O)c(C(C)C)cc2cnc(Nc3ccc(F)cn3)cc21 [Compound 128, 7-((5-fluoropyridin-2-yl)amino)-3-isopropyl-1-(2-methoxyethyl)-1,6-naphthyridin-2(1H)-one] | – | – | 1 to 5 | 1 to 5 | 1 to 5 | – | > 10 | – | 1 to 10 | –

The next lines start with results.

Row | EC50 ([2]; 48 h) [µM] | IC50 [3] [µM] | IC50 [4] [µM] | IC50 [5] [µM] | IC50 [6] [µM] | IC50 ([6]; read-out: BTK IC50) [µM] | EC50 ([2]; 48 hrs) [µM] | IC50 ([5]; Lyn IC50) [µM] | SMILES | EC50 ([1]; 48 hrs, read-out: DoHH2 EC50) [µM] | EC50 ([1]; Table 4, DoHH2 cells, read-out: EC50 (Proliferation)) [µM]
16 | > 10 | 0.1 to 1 | 0.1 to 1 | 0.1 to 1 | 0.1 to 1 | 0.1 to 1 | – | – | CCn1c(=O)c(-c2ccccc2C)cc2cnc(Nc3ccc(C)cn3)cc21 [Compound 45, 1-ethyl-7-(5-methylpyr—idin-2-ylamino)-3-o-tolyl-1,6-naphthyridin-2(1H)-one] | > 10 | –
17 | – | – | 0.1 to 1 | 0.1 to 1 | 1 to 5 | – | > 10 | – | CCn1c(=O)c(-c2ccccc2)cc2cnc(Nc3ccc(OC)cn3)cc21 [Compound 51, 1-Ethyl-7-(5-methoxy-pyridin-2-ylamino)-3-phenyl-1H-[1,6]naphthayridin-2-one] | 1 to 10 | –
18 | – | – | 0.1 to 1 | 0.1 to 1 | 1 to 5 | – | > 10 | – | CCn1c(=O)c(C#CC(C)(C)O)cc2cnc(Nc3ccc(C)cn3)cc21 [Compound 54] | 1 to 10 | –
19 | – | – | 0.1 to 1 | 1 to 5 | 1 to 5 | – | 1 to 10 | – | CCn1c(=O)c(-c2ccccc2)cc2cnc(Nc3ccc(OC)nn3)cc21 [Compound 61, 1-Ethyl-7-(6-methoxy-pyridazin-3-ylamino)-3-phenyl-1H-[1,6]naphthyridin-2-one] | < 1 | –
20 | – | – | 0.1 to 1 | 0.1 to 1 | 1 to 5 | – | > 10 | – | CCn1c(=O)c(-c2ccccc2)cc2cnc(Nc3ccc(N(C)C)cn3)cc21 [Compound 64, 7-(5-Dimethylamino-pyridin-2-ylamino)-1-ethyl-3-phenyl-1H-[1,6]naphthyridin-2-one] | < 1 | –
21 | – | – | 0.1 to 1 | 0.1 to 1 | – | < 0.1 | 1 to 10 | – | CCn1c(=O)c(-c2ccccc2)cc2cnc(Nc3ccc(CN4CCN(S(C)(=O)=O)CC4)cn3)cc21 [Compound 111, 1-ethyl-7-((5-((4-(methylsulfonyl)piperazin-1-yl)methyl)pyridin-2-yl)amino)-3-phenyl-1,6-naphthyridin-2(1H)-one] | < 1 | –
22 | > 10 | – | 0.1 to 1 | 1 to 5 | – | < 0.1 | – | – | CCn1c(=O)c(-c2ccccc2)cc2cnc(Nc3cn(CCOC)cn3)cc21 [Compound 114, 1-ethyl-7-((1-(2-methoxyethyl)-1H-imidazol-4-yl)amino)-3-phenyl-1,6-naphthyridin-2(1H)-one] | 1 to 10 | –
